Data as given in patent US8735584B2 (Merck Patent GmbH, priority 2008, dated 2014).

What follows are compounds tested against T1, GST-Aurora A (Homo sapiens, UniProt O14965) (assay: Aurora A IC50, Caliper LC3000 mobility shift assay). Details: LC3000 method; 15 uM ATP (the KM value); read-out: Aurora Kinase A Activity (IC50).
T1 construct: N-terminal GST fusion with full length Aurora A (1-403 amino acids); purchased Carna Biosciences 05-101
T1 sequence (O14965 1-403): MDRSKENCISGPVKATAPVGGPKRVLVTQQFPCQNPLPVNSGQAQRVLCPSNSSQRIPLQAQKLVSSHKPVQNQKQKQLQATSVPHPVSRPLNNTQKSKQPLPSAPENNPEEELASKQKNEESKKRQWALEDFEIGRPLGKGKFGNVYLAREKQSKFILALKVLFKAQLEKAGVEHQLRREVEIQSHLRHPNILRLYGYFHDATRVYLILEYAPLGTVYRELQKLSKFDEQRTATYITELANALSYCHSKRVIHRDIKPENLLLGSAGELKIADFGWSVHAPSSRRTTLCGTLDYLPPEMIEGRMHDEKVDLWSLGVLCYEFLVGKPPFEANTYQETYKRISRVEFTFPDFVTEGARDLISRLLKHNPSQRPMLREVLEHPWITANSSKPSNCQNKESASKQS
Assay type: biochemical
Description: The Aurora assays described here are performed on two Caliper Life Sciences systems: the LC3000 and the Desktop Profiler. These provide data on enzyme activity via measurement of the relative amounts of phosphorylated or unphosphorylated fluorescently labelled substrate peptide at the end of an enzymatic reaction. These different states of peptide are resolved by applying a potential difference across the sample. The presence of the charged phosphate group on the product (as opposed to the substrate) causes a different peptide mobility between the two peptides. This is visualized by excitation of the fluorescent label on the substrate and product peptides and represented as peaks within the analysis software.
In order to measure inhibitor activity of Aurora A inhibitors in the Caliper Life Sciences LC3000, a TTP Mosquito liquid handling instrument is used to place 0.25 ul of the appropriate concentration of inhibitor in 100% DMSO (for a dose response curve calculation) into each well of a 384-well plate. To this reaction components are added to a final volume of 25 ul: • 0.067 ng/ul GST-Aurora A (Carna Biosciences 05-101. N-terminal GST fusion with full length Aurora A (1-403 amino acids), accession number NP 940835.1). • 15 uM ATP (Fluke, 02055) • 1 mM DTT (Sigma, D0632) • 1 mM MgCl2 (Sigma, M1028) • 1 uM substrate peptide (sequence FITC-LRRASLG-(CONH2), synthesized by Tufts Peptide Synthesis service. • 100 mM HEPES pH 7.5 (Calbiochem, 391338) • 0.015% Brij-35 (Sigma, B4184)
The reaction is incubated for 90 min at 25 C, and then stopped by the addition of 70 ul of Stop buffer (100 mM HEPES pH 7.5, 0.015% Brij-35, 10 mM EDTA (Sigma, E7889)).
The plate is read on a Caliper LC3000 in an Off-Chip mobility shift assay format, using the following parameters for a 12-sipper chip: screening pressure—1.8 psi, upstream voltage—2700, downstream voltage—1000. These conditions cause unphosphorylated substrate and phosphorylated product peptide to resolve as separate peaks allowing direct measurement of percentage of conversion of substrate to product. The percent conversion can be plotted against concentration of inhibitor to produce a sigmoidal dose response curve, from which an 1050 can be calculated using XLFit for Microsoft Excel.
In the desired wells of a 384-well plate, Aurora A (0.067 ng/ul) was incubated with 15 uM ATP (the KM value), 1 mM DTT, 1 mM MgCl2, and 1 uM peptide substrate (sequence FITC-LRRASLG-(CONH2), FITC=fluorescein isothiocyanate) in 100 mM HEPES pH 7.5 and 0.015% Brij-35 buffer. The reaction was incubated for 90 min at 25 C, and then stopped by the addition of 45 ul of Stop buffer (100 mM HEPES ph 7.5, 0.015% Brij-35, 10 mM EDTA).
The plate was read in a Caliper LC 3000 in an Off-Chip mobility shift assay format, using the following parameters: screening pressure—1.8 psi, upstream voltage—2700, downstream voltage—1000. These conditions cause unphosphorylated substrate peptide to resolve as a peak before that of the phosphorylated peptide product.
In the following table “+” means >100 nM, “++” means 11-100 nM, and “+++” means <11 nM.

IC50	SMILES
> 100 nM	O=c1[nH]c2ncccc2c2cc(NCc3c(F)cccc3Cl)ccc12 [Compound 471, 9-(2-Chloro-6-fluorobenzylamino)benzo[c][1,8]naphthyridin-6(5H)-one]
< 11 nM	O=C(Nc1ccc(Nc2ccnc3[nH]c(=O)c4c(C(=O)NCCO)cccc4c23)cc1)c1ccccc1 [Compound 438, 1-[4-Benzoylamino-phenylamino)-6-oxo-5,6-dihydro-benzo[c][1,8]naphthyridin-7-carboxylic acid 2-hydroxy ethyl amide]
< 11 nM	O=C(Nc1ccc(Nc2ccnc3[nH]c(=O)c4ccc(F)cc4c23)cc1)c1cccc(F)c1F [Compound 418, 2,3-Difluoro-N-[4-(9-fluoro-6-oxo-5,6-dihydro-benzo[c][1,8]naphthyridin-1-ylamino)-phenyl]-benzamide]
> 100 nM	O=C(c1ccccc1)N1CC(Nc2ccnc3[nH]c(=O)c4ccccc4c23)C1 [Compound 366, 1-(1-Benzoylazetidin-3-ylamino)benzo[c][1,8]naphthyridin-6(5H)-one]
> 100 nM	O=C(Nc1ccccc1Nc1ccnc2[nH]c(=O)c3ccccc3c12)c1ccccc1 [Compound 392, N-[2-(6-Oxo-5,6-dihydro-benzo[c][1,8]naphthyridin-1-ylamino)-phenyl]-benzamide]
> 100 nM	Cc1cc(Nc2ccnc3[nH]c(=O)c4ccccc4c23)n(CC(=O)Nc2ccc(F)c(F)c2)n1 [Compound 309, N-(3,4-difluorophenyl)-2-(3-methyl-5-(6-oxo-5,6-dihydrobenzo[c][1,8]naphthyridin-1-ylamino)-1H-pyrazol-1-yl)acetamide]
11 to 100 nM	O=C(Nc1ccc(Nc2ccnc3[nH]c(=O)c4ccccc4c23)cc1)c1ccc(OC(F)(F)F)cc1 [Compound 401, N-[4-(6-Oxo-5,6-dihydro-benzo[c][1,8]naphthyridin-1-ylamino)-phenyl]-4-trifluoromethoxy-benzamide]
< 11 nM	O=C(Nc1ccc(Nc2ccnc3[nH]c(=O)c4ccccc4c23)cc1)c1cccc(F)c1F [Compound 432, 2,3-Difluoro-N-[4-(6-oxo-5,6-dihydro-benzo[c][1,8]naphthyridin-1-ylamino)-phenyl]-benzamide]
11 to 100 nM	O=C(Nc1ccc(Nc2ccnc3[nH]c(=O)c4ccccc4c23)cn1)c1ccccc1 [Compound 324, N-(5-(6-Oxo-5,6-dihydrobenzo[c][1,8]naphthyridin-1-ylamino)pyridin-2-yl)benzamide]
< 11 nM	O=C(Nc1ccc(Nc2ccnc3[nH]c(=O)c4ccccc4c23)cc1)c1cccc(F)c1 [Compound 381, 3-Fluoro-N-[4-(6-oxo-5,6-dihydro-benzo[c][1,8]naphthyridin-1-ylamino)-phenyl]-benzamide]
11 to 100 nM	CCN(CCO)Cc1ccc2c(c1)c(=O)[nH]c1nccc(Nc3ccc(NC(=O)c4ccccc4)cc3)c12 [Compound 274, N-(4-(8-((Ethyl(2-hydroxyethyl)amino)methyl)-6-oxo-5,6-dihydrobenzo[c][1,8]naphthyridin-1-ylamino)phenyl)benzamide]
11 to 100 nM	O=C(CN1CCC(Nc2ccnc3[nH]c(=O)c4ccccc4c23)CC1)Nc1ccccc1 [Compound 372, 2-(4-(6-Oxo-5,6-dihydrobenzo[c][1,8]naphthyridin-1-ylamino)piperidin-1-yl)-N-phenylacetamide]
> 100 nM	O=C(Nc1ccc(Oc2ccnc3[nH]c(=O)c4ccccc4c23)cc1)c1cccn(-c2ccc(F)cc2)c1=O [Example 181, 1-(4-Fluoro-phenyl)-2-oxo-1,2-dihydro-pyridine-3-carboxylic acid [4-(6-oxo-5,6-dihydro-benzo[c][1,8]naphthyridin-1-yloxy)-phenyl]-amide]
< 11 nM	O=C(CC(F)(F)F)Nc1ccc(Nc2ccnc3[nH]c(=O)c4ccccc4c23)cc1 [Compound 349, 3,3,3-Trifluoro-N-(4-(6-oxo-5,6-dihydrobenzo[c][1,8]naphthyridin-1-ylamino)phenyl)propanamide]
< 11 nM	O=C(Nc1ccc(Nc2ccnc3[nH]c(=O)c4ccccc4c23)cc1)c1c(Cl)cccc1Cl [Compound 395, 2,6-Dichloro-N-[4-(6-oxo-5,6-dihydro-benzo[c][1,8]naphthyridin-1-ylamino)-phenyl]-benzamide]
> 100 nM	O=c1[nH]c2ncccc2c2cc(NCc3cccc([N+](=O)[O-])c3)ccc12 [Compound 465, 9-(3-Nitrobenzylamino)benzo[c][1,8]naphthyridin-6(5H)-one]

The remaining lines, values behind:

SMILES	IC50
COc1cc2c(=O)[nH]c3nccc(Nc4ccc(F)cc4)c3c2cc1OC [Example 215, 1-(4-Fluoro-phenylamino)-8,9-dimethoxy-5H-benzo[c][1,8]naphthyridin-6-one]	> 100 nM
O=C(Nc1ccc(Nc2ccnc3[nH]c(=O)c4c(O)cccc4c23)cc1)c1ccccc1 [Compound 446, N-[4-(7-Hydroxy-6-oxo-5,6-dihydro-benzo[c][1,8]naphthyridin-1-ylamino)-phenyl]-benzamide]	11 to 100 nM
CCOC(=O)CCCNc1ccc2c(=O)[nH]c3ncccc3c2c1 [Compound 460, Ethyl 4-(6-oxo-5,6-dihydrobenzo[c][1,8]naphthyridin-9-ylamino)butanoate]	> 100 nM
O=C(Nc1ccc(Nc2ccnc3[nH]c(=O)c4ccccc4c23)cc1)c1cc(Cl)cc(Cl)c1 [Compound 390, 3,5-Dichloro-N-[4-(6-oxo-5,6-dihydro-benzo[c][1,8]naphthyridin-1-ylamino)-phenyl]-benzamide]	< 11 nM
CC(=O)Nc1ccc(C#Cc2ccnc3[nH]c(=O)c4ccccc4c23)cc1 [Compound 265]	> 100 nM
COc1ccccc1C(=O)Nc1ccc(Nc2ccnc3[nH]c(=O)c4ccccc4c23)cc1 [Example 148, 2-Methoxy-N-[4-(6-oxo-5,6-dihydro-benzo[c][1,8]naphthyridin-1-ylamino)-phenyl]-benzamide]	< 11 nM
O=c1[nH]c2nccc(Nc3c(Cl)ccc4c3OCO4)c2c2ccccc12 [Example 188, 1-(5-Chloro-benzo[1,3]dioxol-4-ylamino)-5H-benzo[c][1,8]naphthyridin-6-one]	> 100 nM
Cc1cc(Nc2ccnc3[nH]c(=O)c4ccccc4c23)ccc1NC(=O)c1ccccc1 [Compound 322, N-(2-Methyl-4-(6-oxo-5,6-dihydrobenzo[c][1,8]naphthyridin-1-ylamino)phenyl)benzamide]	> 100 nM
O=c1[nH]c2nccc(Nc3ccc(NS(=O)(=O)c4ccccc4)cc3)c2c2ccccc12 [Compound 341, N-(4-(6-Oxo-5,6-dihydrobenzo[c][1,8]naphthyridin-1-ylamino)phenyl)benzenesulfonamide]	> 100 nM
O=C(Nc1ccc(Nc2ccnc3[nH]c(=O)c4ccccc4c23)cc1)C(CC1CCCO1)C(F)(F)F (stereo not shown) [Compound 495, 3,3,3-Trifluoro-N-(4-(6-oxo-5,6-dihydrobenzo[c][1,8]naphthyridin-1-ylamino)phenyl)-2-((tetrahydrofuran-2-yl)methyl)propanamide]	11 to 100 nM
O=C(Cn1cc(Nc2ccnc3[nH]c(=O)c4ccc(F)cc4c23)cn1)Nc1ccc(C(F)(F)F)cc1 [Compound 422]	11 to 100 nM
CN1CCN(CCNC(=O)c2ccc3c(c2)c(=O)[nH]c2nccc(Nc4ccc(NC(=O)c5ccccc5)cc4)c23)CC1 [Compound 271, 1-(4-Benzamidophenylamino)-N-(2-(4-methylpiperazin-1-yl)ethyl)-6-oxo-5,6-dihydrobenzo[c][1,8]naphthyridine-8-carboxamide]	11 to 100 nM
